Here are results for five compounds from patent US12570643B2, “3-aryloxy-3-five-membered heteroaryl propylamine compound, and crystal form and use thereof” (Shanghai Leado Pharmatech Co. Ltd., priority 2019, dated 2026).

Test [1] deals with postoperative pain model in rat. Briefly: Postoperative pain model in rat, mechanical hyperalgesia test. The conditions noted are these: 10 mg/kg intramuscular injection. Format: in vivo. On the procedure: Injection of compound I-1: 36.13 mg of compound I-1 prepared in Example 2 was weighed and added into 3.140 mL of normal saline, and well mixed by vortex;
The solvent of the test compound I-1 was normal saline, the administration dose was 10 mg/kg, and the administration method was intramuscular injection. 36.13 mg of the compound I-1 was weighed and added into 3.140 mL normal saline, and well mixed by vortex. The reference compound used in the experiment was bupivacaine injection, purchased from Shanghai Zhaohui Pharmaceutical Co., Ltd., in a dose of 10 mg/kg via intramuscular injection.
Aseptic operation was performed during surgery, surgical instruments (scissors, forceps, scalpel, surgical cotton, suture thread) were disinfected before the operation. The rats were anesthetized with sodium pentobarbital (50 mg/kg, intraperitoneal injection), and the toes of the rats were squeezed to confirm that the animals were completely anesthetized before the surgery. Ophthalmic ointment was applied to the animal's eyes to prevent the animal's cornea from drying out. Iodophor and 70% ethanol were used to disinfect the skin of the surgery area on the sole of the left hind foot three times, and the surgery was started after the skin was dried. Starting at 0.5 cm from the heel, a 1 cm long incision was made longitudinally toward the toe. After cutting the skin, the flexor digitorum brevis was lifted to make longitudinal blunt injury. After pressing to stop the bleeding, the wound was sutured. The surgical instruments were cleaned and sterilized with hot bead sterilizer. After the surgery, the animals were placed on an electric blanket and injected subcutaneously with 5 mL normal saline to prevent dehydration. When the animal was completely awake (free to move), put the animal back into the cage. […]
The rat was placed alone in a plexiglass box with a grid on the bottom of the box to ensure that the rat's feet can be tested. […] During the test, the animal's rapid foot shrinkage was recorded as a pain response. The animal's foot shrinkage when the test fiber left the animal's skin was also recorded as a pain response. If the animal moved or walked, it would not be recorded as the pain response, the test should be repeated. […] The mechanical hyperalgesia test results are recorded in the table of FIG. 10, in which pain response is indicated with an “x” and no pain response is indicated with an “o.”
Mechanical hyperalgesia was expressed as the paw withdrawal threshold (PWT) in the behavioral test of rats, which was calculated according to the following equation: 50% response threshold (g)=(10(Xf+k))/10,000 • Xf=the final test fiber value used in the test • K=table value (Chaplan et al. 1994, page 62) • □=Average difference 5. […]

Test [2] relates to formalin pain model in mice. Briefly: Formalin pain model in mice. Format: in vivo, C57BL/6 mice. The following applies: Mus musculus, ip; intraperitoneal, phase II (10-60 min), dose that halves licking time vs blank control; read-out: analgesic potency ED50 in phase II pain. The text has this: 150 C57BL/6 mice (male, 9 weeks) were randomly divided into 15 groups with 10 mice for each group, and were used for the analgesic activity test of 3 compounds in the formalin pain model in mice: the compound I-1 group (compound I-1 prepared in Example 2, its hydrochloride was used in the experiment), the S-duloxetine group (its hydrochloride was used in the experiment) and the compound C1 group (compound C1 prepared in Comparative Example 1, its hydrochloride was used in the experiment), respectively. Before the start of the experiment, the mice were allowed to adapt to the experimental environment for 72 hours, during which there was no need to fast for food or water. The tested drugs were administrated by intraperitoneal injection, and the doses were as follows: • The compound I-1 group: blank Vehicle (blank normal saline control), 0.1 mg/kg, 0.5 mg/kg, 1 mg/kg, 5 mg/kg and 10 mg/kg; • The S-duloxetine group: blank Vehicle (blank normal saline control), 1 mg/kg, 5 mg/kg, 10 mg/kg and 20 mg/kg; • The Compound C1 group: blank Vehicle (blank normal saline control), 0.1 mg/kg, 0.5 mg/kg, 1 mg/kg, 5 mg/kg and 10 mg/kg.
After the administration, the mice were placed in a transparent, ventilated plexiglass cylinder, and 1 hour later, 20 μl of 4% formalin solution was injected into the left hind foot plantar of each group of mice with a micro-injector, and foot pain response in mice were recorded in real time with a miniature camera. The length of time of licking the left foot was used as an indicator of pain response, the licking time were observed and recorded during two periods of 0-10 min (phase I) and 10-60 min (phase II) respectively, for statistical analysis, and the half effective dose (ED50) of the 3 compounds were calculated: ED50 refers to the drug dose that reduces the licking time by half compared with the blank control group. The smaller the ED50 value is, the lower the effective analgesic dose of the compound is and the better its analgesic effect is.

The subject of a further test is SNL model in rat. Briefly: SNL model in rat, mechanical hyperalgesia test. Format: in vivo, SD rats. The conditions noted are these: 100 mg/kg intragastric, 1 hour after administration; control group 3.967 ± 0.775.
In test [3] the test system is hot plate induced pain model in rat. In words: Hot plate induced pain model in rat. Format: in vivo, Sprague-Dawley rats. The following applies: 100 mg/kg intraperitoneal. On the procedure: Male, mature and unmated healthy Sprague-Dawley rats were selected, and the temperature of the cold/hot plate (product model: PE34, US IITC) was adjusted to a constant temperature of 53±0.1° C., and rats with painful response such as foot licking, foot shaking or slight jumping within 5-10 s were screened (abandoned those who evaded and jumped). […] The tested compound was freshly formulated on the day of administration. A 0.9% NaCl normal saline solution was prepared as a vehicle, an appropriate amount of the test compound was added to the required volume of normal saline, and the mixture was fully suspended to prepare the drug at a concentration of 1 mg/ml. […] The latency of thermal pain was measured at 0.5 h, 1 h and 2 h after drug administration. To avoid scalding the animals on the hot plate, the maximum latency was set to 30 s. The analgesic effect of each compound was evaluated using the maximum possible effect (MPE), i.e. MPE %=[(Post drug latency-baseline latency)/(30−baseline latency)]×100. Statistics of MPE % at different time points.

The target of a further test is T1, TRPA1 (Mus musculus, UniProt Q8BLA8).
T1 construct: expressed in transfected cells; host or cells: HEK293 cells stably expressing TRPA1
In words: TRPA1 inhibitory activity, IonWorks Barracuda (IWB) automatic patch clamp detection. It counts as cell-based. The conditions noted are these: HEK293 cells stably expressing TRPA1, AITC-induced current; read-out: IC50(μM) against TRPA1 in automatic patch clamp detection. On the procedure:
In this example, the compounds prepared in some examples of the present invention (shown in Table 1) were tested for their inhibitory activity on the transient receptor potential channel protein TRPA1. Wherein, compound of formula A (WO2010075353) was used as positive control: […]
Test method by using IonWorks Barracuda (IWB) automatic patch clamp detection: HEK293 cells stably expressing TRPA1 were placed in a 37° C., 5% CO2 incubator and incubated with DMEM medium containing 15 μg/mL Blasticidin S HCl, 200 μg/mL Hygromycin B and 10% FBS serum in a T175 culture flask. When the cell density grew to […], the culture medium was removed, the cells were washed with calcium and magnesium free phosphate buffered saline (PBS), and 3 mL of Trypsin was added and digested for 2 minutes, and 7 mL of culture medium was added to terminate the digestion. […]
Data recording and current amplitude measurement and export were completed by IWB Software (version 2.5.3, Molecular Devices Corporation, Union City, CA). The statistics of the well with a sealing impedance lower than 20 M Ω were not recorded. The original current data was corrected by software, the TRPA1 current amplitude was measured in +100 mV. […] The dose-effect curve and IC50 of compounds were fitted and calculated by GraphPad Prism 5.02 (GraphPad Software, San Diego, CA).

Test [4] relates to acetic acid writhing pain model in mice. In words: Acetic acid writhing pain model in mice. It counts as in vivo, ICR mice. The following applies: 10 mg/kg intragastric, acetic acid 1 hour after administration; normal saline group 49 times. On the procedure: ICR mice, male, 22-25 g, were fasted for food 2 h before administration, but can have water. All ICR mice were weighed and randomly grouped with the number of animals>10 per group. […] The mice were administered via intragastric administration according to the weight of mice. 1.5% acetic acid solution (0.1 ml/10 g) was intraperitoneally injected at 1 hour after administration, and the number of times of visceral pain in each group within 30 minutes was observed, the mice were counted once when the abdomen was concave, the trunk and hind legs were extended and the hips were elevated, and the number of times of these phenomena occurred within 30 min was finally counted.
For orientation: In writhing tests, fewer writhes than in controls are read as antinociception.

One may read the ED50 as the midpoint of the dose-response relation. Broadly, the IC50 is the midpoint of a concentration-inhibition curve.

T1 sequence (Q8BLA8 whole entry): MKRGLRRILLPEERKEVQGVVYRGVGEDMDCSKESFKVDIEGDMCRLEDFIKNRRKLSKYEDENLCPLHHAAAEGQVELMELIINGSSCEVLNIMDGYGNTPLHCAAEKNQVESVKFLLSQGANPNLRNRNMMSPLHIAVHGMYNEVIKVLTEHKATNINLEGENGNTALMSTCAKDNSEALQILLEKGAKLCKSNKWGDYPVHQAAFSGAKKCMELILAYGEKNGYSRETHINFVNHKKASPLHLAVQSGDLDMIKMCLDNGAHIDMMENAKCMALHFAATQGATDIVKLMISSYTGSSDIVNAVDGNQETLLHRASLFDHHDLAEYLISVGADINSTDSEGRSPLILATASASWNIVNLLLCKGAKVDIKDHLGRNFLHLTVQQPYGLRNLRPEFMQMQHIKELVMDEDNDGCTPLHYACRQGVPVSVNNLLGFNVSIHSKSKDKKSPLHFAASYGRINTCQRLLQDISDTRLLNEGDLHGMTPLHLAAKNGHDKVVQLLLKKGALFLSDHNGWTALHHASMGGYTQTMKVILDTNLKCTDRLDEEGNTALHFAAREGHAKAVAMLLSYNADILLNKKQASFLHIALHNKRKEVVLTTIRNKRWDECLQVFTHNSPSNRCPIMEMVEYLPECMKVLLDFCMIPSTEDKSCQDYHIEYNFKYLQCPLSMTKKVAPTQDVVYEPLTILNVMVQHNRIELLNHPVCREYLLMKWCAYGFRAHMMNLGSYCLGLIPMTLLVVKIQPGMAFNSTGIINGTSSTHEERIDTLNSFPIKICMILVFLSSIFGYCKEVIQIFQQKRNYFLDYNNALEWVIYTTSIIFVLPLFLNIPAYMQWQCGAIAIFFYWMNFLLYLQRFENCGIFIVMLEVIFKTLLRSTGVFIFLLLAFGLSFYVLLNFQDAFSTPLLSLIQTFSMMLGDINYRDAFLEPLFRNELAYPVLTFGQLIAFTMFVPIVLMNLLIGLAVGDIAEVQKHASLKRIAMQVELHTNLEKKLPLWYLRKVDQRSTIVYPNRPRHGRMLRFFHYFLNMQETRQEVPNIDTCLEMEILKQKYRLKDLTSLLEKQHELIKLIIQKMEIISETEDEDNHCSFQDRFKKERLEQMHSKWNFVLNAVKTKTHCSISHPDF
Method for SNL model in rat: SD rats were taken for surgery, male, SPF grade, mass 150 g-180 g. The surgical procedure was performed aseptically. The animals were anesthetized with sodium pentobarbital (50 mg/kg, intraperitoneal injection). The surgical area of the waist of animals was shaved, and the skin was disinfected three times with iodophor and 70% ethanol. Start the operation after the skin was dry. A longitudinal incision was made in the posterior part of the sacral bone of the animal's waist with a scalpel to expose the left paravertebral muscles, and the muscle tissue was separated with a distractor to expose the vertebra. The left spinal nerves L5 and L6 were separated, ligated with 6-0 silk thread, and the wounds were sutured. After the surgery, the animals were placed on an electric blanket and injected subcutaneously with 5 mL normal saline to prevent dehydration. When the animal was completely awake (free to move), put the animal back into the cage.
After the surgery, the animals were adapted in the experimental environment for 15 minutes/day for 3 days.
After administration, mechanical hyperalgesia test was performed. The rats were placed individually in a plexiglas box with a grid at the bottom of the box to ensure that the feet of the rats can be tested. Rats would adapt for 15 minutes before the test. […] The rapid paw withdrawal of the animal during the test was recorded as a pain response. The paw withdrawal of the animal when the test fiber left the animal's skin was also recorded as a pain response. If the animal moved or walked, it will not be recorded as a pain response, the test should be repeated. […]
Mechanical hyperalgesia was expressed as the paw withdrawal threshold (PWT) in the behavioral test of rats, which was calculated according to the following equation: 50% response threshold (g)=(10(^Xf+kδ))/10,000 • Xf=the final test fiber value used in the test • K=table value • δ=Average difference
Data were collected using Excel software and analyzed using Prism 6.01 (Graph pad software, Inc.) software.

For the compound `CCCCN1CCCCC1C(=O)Nc1c(C)cccc1C` (stereo not drawn) [Bupivacaine, bupivacaine], the “PWT” value is listed as 11.587 g in test [1] (1 hour after administration, Normal Saline 3.561) and 4.448 g in test [1] (2 hours after administration, Normal Saline 3.382).

As to `CNCC[C@H](Oc1cccc2ccoc12)c1cccs1` [Compound C1, (S)-3-(benzofuran-7-yloxy)-N-methyl-3-(thiophen-2-yl)propan-1-amine], in test [2], the ED50 came out at 2.22 mg/kg.

On to `NCC1(CC(=O)O)CCCCC1` [Gabapentin, gabapentin], for which the “PWT” value in the test with SNL model in rat stood at 6.352 ± 1.897 g. Further, the MPE % in test [3] (0.5 h) was 6.47 ± 5.49%; in test [3] (1 h), 14.56 ± 6.18%; in test [3] (2 h), 22.66 ± 4.93%.

With `CNCC[C@@H](Oc1cccc2ccccc12)c1cccs1` [R-Duloxetine, R-duloxetine], on TRPA1, the IC50 is 21 to 50 µM.

For `CN1[C@H]2C[C@H](OC(=O)[C@H](CO)c3ccccc3)C[C@@H]1[C@@H](O)C2` [anisodamine, Anisodamine], the “number of visceral pains (writhing reactions) within 30 min” value in test [4] is given as 27 times.
